Ends that are not written are not given here. * marks the point of attachment. Biotin = O=C1N[C@H]2[C@H](CS[C@H]2CCCCC(=O)*)N1
Key:
[1] = 20 μM biotin-labelled peptide, 30 min 37° C.; streptavidin-HRP, QuantaBlu; three replicate enamel substrates; no peptide 494.2
Method: A total of 11 synthetic peptides were manufactured using sequences obtained from Table 3. Peptides were obtained from SynBioSci Corp. (Livermore, Calif.) with biotin labeled lysine at the C-terminus.
Enamel substrates were prepared as described in Example 2. Each substrate was incubated for 1 h at room temperature (˜22° C.) with 1 mL of blocking buffer, consisting of 1 mg/mL BSA in PBST (Pierce BUPH™ #28372 with 0.1% TWEEN® 20). The blocking buffer was removed by aspirating the liquid out of each well. The tube was rinsed 2 times with wash buffer consisting of PBST. The wells were filled with 500 μL of 20 μM peptide solution which was prepared by diluting in blocking buffer. The samples were incubated for 30 min with slow shaking at 37° C. The non-binding peptide was removed by washing 6 times with PBST. Then, 500 μL of horseradish peroxidase/streptavidin conjugate (Pierce #22127), diluted 1:1000 in PBST, was added and incubated for 1 h at room temperature (˜22° C.). The conjugate solution was removed and the enamel blocks were washed 4 times with PEST.
Each enamel substrate was removed from the well and washed again in a 15-mL test tube with 10 mL of PBST. Each enamel substrate was then mounted in a clean well plate with only the enamel surface exposed. 200 μL of a QUANTABLU™ Substrate Solution (Thermo-Fisher, Rockford, Ill.; #1856187) was added directly to each enamel block. The solution was incubated for 20 min at room temperature. 200 μL of QUANTABLU™ Stop Solution (Thermo Fisher) was added. After mixing, 200 μL of solution was transferred to a clean 96-well black microcentrifuge plate. The fluorescence of the plate was measured with 325 nm excitation and 420 nm emission with no cutoff wavelength using a microplate spectrophotometer (Molecular Devices, Sunnyvale, Calif.). The analysis of the 11 pellicle/enamel binding candidates was compared to a known binding peptide, DenP03. Each sequence was tested with three replicate enamel substrates.

C277T (SEQ ID NO: 437) = biological target: T1, C277T (SEQ ID NO: 437) (Thermotoga maritima, UniProt Q9WXT2, C277T); type: biochemical; settings: 100 mM ester, 60 mM H2O2, 40 ppm enzyme, 95 mM phosphate pH 7.2, 37° C.
T1 construct: made in house; host or cells: E. coli
T1 sequence (Q9WXT2 whole entry C277T): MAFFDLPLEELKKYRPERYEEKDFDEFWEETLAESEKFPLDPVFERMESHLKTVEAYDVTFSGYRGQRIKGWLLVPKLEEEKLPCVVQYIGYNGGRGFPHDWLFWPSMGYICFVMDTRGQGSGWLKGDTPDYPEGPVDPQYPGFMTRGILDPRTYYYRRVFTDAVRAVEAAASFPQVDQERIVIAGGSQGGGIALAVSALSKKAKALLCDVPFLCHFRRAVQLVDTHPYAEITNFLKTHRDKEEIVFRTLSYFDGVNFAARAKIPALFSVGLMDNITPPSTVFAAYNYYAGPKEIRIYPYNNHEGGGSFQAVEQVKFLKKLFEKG
Method: (§1) To test various enzymes against an ester substrate, it was convenient to run up to 4 reactions simultaneously by staggering the beginning of each individual reaction by 0.5-1 min. Each individual reaction was performed in a glass vessel (height: 76 mm; o.d.: 33 mm; i.d.: 24 mm) equipped with a magnetic stirring bar. Four reaction vessels were banded together and kept at constant temperature in a jacketed one-liter, stainless steel, tempering beaker (KGW IsoTherm, # TSS-G 1000W) with circulating water controlled by a Thermo NesLab recirculation bath (Model # RTE-7 Digital One). Buffer (6 mL, 100 mM sodium phosphate buffer, pH 7.2) was added to each reaction vessel and allowed to equilibrate to 37° C. The ester substrate of interest was added to achieve 100 mM concentration. […] To follow the production of peracetic acid, 80 μL samples from each reaction were removed at specific intervals from 1 to 15 minutes. The sample was immediately quenched in a microfuge filter tube (NanoSep 30K VWR cat #82031-354) containing a volume and concentration of phosphoric acid solution that was sufficient to stop the enzymatic reaction (by lowering the pH between 2 and 3) and to dilute the sample for convenient HPLC analyses. The acid-quenched samples were centrifuged for 5 minutes to remove any particulates.

[2] = biological target: T2, Wild Type (SEQ ID NO: 16) (Thermotoga maritima, UniProt Q9WXT2); test: Maximum peracetic acid from ester substrates with wild type perhydrolase (Example 14); type: biochemical; settings: 100 mM ester, 60 mM H2O2, 40 ppm enzyme, 95 mM phosphate pH 7.2, 37° C.
T2 construct: made in house; host or cells: E. coli
T2 sequence (Q9WXT2 1-325): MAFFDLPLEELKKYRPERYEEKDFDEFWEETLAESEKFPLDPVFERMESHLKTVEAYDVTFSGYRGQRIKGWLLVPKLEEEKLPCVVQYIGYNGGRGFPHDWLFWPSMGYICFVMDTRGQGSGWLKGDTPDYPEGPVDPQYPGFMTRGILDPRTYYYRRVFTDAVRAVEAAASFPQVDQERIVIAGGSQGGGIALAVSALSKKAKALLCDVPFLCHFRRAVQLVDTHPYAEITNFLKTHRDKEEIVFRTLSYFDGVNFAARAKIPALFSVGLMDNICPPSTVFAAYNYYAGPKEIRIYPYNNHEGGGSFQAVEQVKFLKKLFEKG
Method: as §1

[3] = biological target: T3, C277T/R296P (SEQ ID NO: 476) (Thermotoga maritima, UniProt Q9WXT2, C277T/R296P); type: biochemical; settings: 100 mM ester, 60 mM H2O2, 40 ppm enzyme, 95 mM phosphate pH 7.2, 37° C.
T3 construct: made in house; host or cells: E. coli
T3 sequence (Q9WXT2 whole entry C277T/R296P): as the sequence (Q9WXT2 whole entry C277T) above, with R296P counted along it
Method: as §1

C277S (SEQ ID NO: 424) = biological target: T4, C277S (SEQ ID NO: 424) (Thermotoga maritima, UniProt Q9WXT2, C277S); type: biochemical; settings: 100 mM ester, 60 mM H2O2, 40 ppm enzyme, 95 mM phosphate pH 7.2, 37° C.
T4 construct: made in house; host or cells: E. coli
T4 sequence (Q9WXT2 whole entry C277S): as the sequence (Q9WXT2 whole entry C277T) above, with T277S counted along it
Method: as §1

[4] = Bleaching of coffee-tea stained bovine enamel with EZ-1 and various ester substrates (Example 15); parameters: Whiteness Index Treatment 0 / Whiteness Index Treatment 1 / Whiteness Index Treatment 2 / Whiteness Index Treatment 3 / ΔWI: scale not given here; settings: for Whiteness Index Treatment 1: after 1 x 30 min treatment; for Whiteness Index Treatment 2: after 2 x 30 min treatments; for Whiteness Index Treatment 3: after 3 x 30 min treatments; for Whiteness Index Treatment 0: before treatment, 40 ppm EZ-1, 100 mM substrate, H2O2 100 mM (TA), 360 mM (PGDA, SOC), 60 mM (GPA), pH 7.2, control 9% H2O2 pH 5.3 without enzyme; for change in whiteness index (in words): enzymatically generated peracetic acid with EZ-1, each successive treatment; for ΔWI: treatment 0 to treatment 3
Method: The optimal conditions used for the generation of peracetic acid with each substrate were derived from the studies in Example 14 and are listed below as follows:
Bovine enamel incisors were prepared as indicated in Example 1. The stained enamel blocks were placed in a 24 well plate with the dentin side facing down and hydrated overnight in phosphate buffer, pH 7.2. Prior to treatment, a color measurement of each tooth was performed using a Konica-Minolta 2600d spectrophotometer and whiteness index was calculated as specified in Example 1.
Each enzyme solution was prepared in a 1.5-mL microfuge tube (Eppendorf, #2243102-1) and 1 mL of the solution was immediately transferred to the 24 well plate containing the pre-hydrated teeth. The control samples consisted of 100 mM phosphate buffer, pH 7.2 and 9% H2O2 in 100 mM citrate/phosphate buffer, pH 5.3. The teeth were incubated at room temperature for 30 minutes, removed, rinsed with 100 mM phosphate, pH 7.2 and a color measurement was taken. The teeth were placed back into the 24 well plate at which time fresh enzyme solutions were prepared and added to each well. This process was repeated for a total of 3 whitening treatments; 30 min per treatment (Table 22).

Compound	Avg Fluorescence 325/420 [1]	Maximum Peracetic Acid (PAA) (ppm), C277T (SEQ ID NO: 437) (C277T (SEQ ID NO: 437))	Maximum Peracetic Acid (PAA) (ppm), Wild Type (SEQ ID NO: 16) [2]	Maximum Peracetic Acid (PAA) (ppm), C277T/R296P (SEQ ID NO: 476) [3]	Maximum Peracetic Acid (PAA) (ppm), C277S (SEQ ID NO: 424) (C277S (SEQ ID NO: 424))	further results
GMGSEVLSQYPQAPVGK(Biotin) [DenP312]	2301.0	–	–	–	–	–
SNATMYNIQSHSHHQK (Biotin) [DenP301]	1098.4	–	–	–	–	–
CC(=O)OCC(C)OC(C)=O (stereo not drawn) [Propylene glycol diacetate]	–	1245 ppm	780 ppm	1202 ppm	1128 ppm	Whiteness Index Treatment 1 [4]: −108.0; Whiteness Index Treatment 2 [4]: −80.9; Whiteness Index Treatment 3 [4]: −80.1; Whiteness Index Treatment 0 [4]: −181.4; change in whiteness index (in words) [4]: significant change in whiteness index; ΔWI [4]: 101.3
SNPIPNFAHDLRHSKYNSK (Biotin) [DenP307]	861.6	–	–	–	–	–
HDPYTMKSALRQSTSK(Biotin) [DenP303]	948.6	–	–	–	–	–
GSNNHLPSTVPRLTVK(Biotin) [DenP306]	1300.0	–	–	–	–	–
ANSGFPIWLQKYPWSEVQQEK (Biotin) [DenP309]	1729.5	–	–	–	–	–
CC(=O)OC[C@H]1O[C@@](COC(C)=O)(O[C@H]2O[C@H](COC(C)=O)[C@@H](OC(C)=O)[C@H](OC(C)=O)[C@H]2OC(C)=O)[C@@H](OC(C)=O)[C@@H]1OC(C)=O [Sucrose octaacetate]	–	493 ppm	304 ppm	501 ppm	215 ppm	Whiteness Index Treatment 1 [4]: −135.2; Whiteness Index Treatment 2 [4]: −135.9; Whiteness Index Treatment 3 [4]: −128.8; Whiteness Index Treatment 0 [4]: −172.8; change in whiteness index (in words) [4]: significant change in whiteness index; ΔWI [4]: 44.0
TKPPRTPTANTSRPHHNFK(Biotin) [DenP308]	12302.6	–	–	–	–	–
CC(=O)OCC(COC(C)=O)OC(C)=O [Triacetin]	–	2311 ppm	937 ppm	2291 ppm	1977 ppm	Whiteness Index Treatment 1 [4]: −108.7; Whiteness Index Treatment 2 [4]: −86.7; Whiteness Index Treatment 3 [4]: −86.1; Whiteness Index Treatment 0 [4]: −189.9; change in whiteness index (in words) [4]: significant change in whiteness index; ΔWI [4]: 103.8
DLGTFPNRTLKMAAHK(Biotin) [DenP304]	642.8	–	–	–	–	–
TTYHYKNIYQESYQQRNPAVK (Biotin) [DenP03, reference compound]	3448.3	–	–	–	–	–
DTIHPNKMKSPSSPLK (Biotin) [DenP305]	581.2	–	–	–	–	–
CC(=O)OC[C@H]1O[C@H](OC(C)=O)[C@H](OC(C)=O)[C@@H](OC(C)=O)[C@@H]1OC(C)=O [α-D-glucose pentaacetate]	–	2542 ppm	1188 ppm	1678 ppm	2091 ppm	Whiteness Index Treatment 1 [4]: −128.7; Whiteness Index Treatment 2 [4]: −105.3; Whiteness Index Treatment 3 [4]: −95.9; Whiteness Index Treatment 0 [4]: −225.2; change in whiteness index (in words) [4]: significant change in whiteness index; ΔWI [4]: 129.3
CC(=O)O[C@@H]1O[C@H](CO)[C@@H](OC(C)=O)[C@H](OC(C)=O)[C@H]1OC(C)=O [β-D-glucopyranose,1,2,3,4-tetraacetate]	–	2225 ppm	2129 ppm	2235 ppm	2309 ppm	–
ATPSQHRYGLMQNHAPNGIEK(Biotin) [DenP311]	795.3	–	–	–	–	–
QAAQVHMMQHSRPTTK (Biotin) [DenP302]	608.6	–	–	–	–	–
C=CC(COC(C)=O)OC(C)=O (stereo not drawn) [3,4-diacetoxy-1-butene]	–	2285 ppm	1692 ppm	2478 ppm	2281 ppm	–
